Source: PubChem BioAssay AID330 (DTP/NCI, 2004)
“And” between values parts separate entries of the source, which are not always exact repeats. Equal entries are not always repeated. Toxic doses and inconclusive results are not listed. The calls were made as follows: active = survival T/C of 150% or more; inactive = T/C below 125% in these data.

Test system: P388 leukemia ip, CD2F1 mice, survival T/C
Experiment: NCI In Vivo Anticancer Drug Screen. Data for tumor model P388 Leukemia (intraperitoneal) in CD2F1 (CDF1) mice
Details: endpoint: median survival time, higher = longer survival
Method in brief: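 Mice carrying the transplanted tumor received test compound or vehicle. Survival was recorded in each group, and the value is the treated-group measurement divided by that of the vehicle-treated control group.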

[1] = dose: 12.5 mg/kg/injection, schedule: Q01DX009 (ip), vehicle: saline
[2] = dose: 25.0 mg/kg/injection, schedule: Q01DX009 (ip), vehicle: saline
[3] = dose: 50.0 mg/kg/injection, schedule: Q01DX009 (ip), vehicle: saline
[4] = dose: 50.0 mg/kg/injection, schedule: Q01DX005 (ip), vehicle: Klucel (hydroxypropylcellulose) (HPC)
[5] = dose: 100.0 mg/kg/injection, schedule: Q01DX005 (ip), vehicle: Klucel (hydroxypropylcellulose) (HPC)
[6] = dose: 60.0 mg/kg/injection, schedule: Q01DX005 (ip), vehicle: saline with Tween-80
[7] = dose: 120.0 mg/kg/injection, schedule: Q01DX005 (ip), vehicle: saline with Tween-80
[8] = dose: 50.0 mg/kg/injection, schedule: Q01DX009 (ip), vehicle: saline with Tween-80
[9] = dose: 100.0 mg/kg/injection, schedule: Q01DX009 (ip), vehicle: saline with Tween-80
[10] = dose: 60.0 mg/kg/injection, schedule: Q01DX005 (ip), vehicle: Klucel (hydroxypropylcellulose) (HPC)
[11] = dose: 120.0 mg/kg/injection, schedule: Q01DX005 (ip), vehicle: Klucel (hydroxypropylcellulose) (HPC)
[12] = dose: 100.0 mg/kg/injection, schedule: Q01DX009 (ip), vehicle: saline
[13] = dose: 200.0 mg/kg/injection, schedule: Q01DX009 (ip), vehicle: saline
[14] = dose: 6.25 mg/kg/injection, schedule: Q01DX005 (ip), vehicle: Klucel (hydroxypropylcellulose) (HPC)
[15] = dose: 12.5 mg/kg/injection, schedule: Q01DX005 (ip), vehicle: Klucel (hydroxypropylcellulose) (HPC)
[16] = dose: 25.0 mg/kg/injection, schedule: Q01DX005 (ip), vehicle: Klucel (hydroxypropylcellulose) (HPC)

Measured: T/C

CCCCCCCCOC(=O)c1[nH]cnc1/N=N\N(C)C
inactive: dose: 100.0 mg/kg/injection, schedule: Q04DX003 (ip), vehicle: Klucel (hydroxypropylcellulose) (HPC) 109 % of control | dose: 200.0 mg/kg/injection, schedule: Q04DX003 (ip), vehicle: Klucel (hydroxypropylcellulose) (HPC) 113 % of control | dose: 400.0 mg/kg/injection, schedule: Q04DX003 (ip), vehicle: Klucel (hydroxypropylcellulose) (HPC) 104 % of control

COc1cccc(C(=O)c2ccncc2)c1OC
inactive: dose: 12.5 mg/kg/injection, schedule: Q01DX009 (ip), vehicle: water 100 % of control | dose: 25.0 mg/kg/injection, schedule: Q01DX009 (ip), vehicle: water 100 % of control | dose: 50.0 mg/kg/injection, schedule: Q01DX009 (ip), vehicle: water 103 % of control | dose: 100.0 mg/kg/injection, schedule: Q01DX009 (ip), vehicle: water 104 % of control | dose: 200.0 mg/kg/injection, schedule: Q01DX009 (ip), vehicle: water 100 % of control

OCc1cc2ccccc2c2c1OCCOCCOCCOCCOCCOc1ccc3ccccc3c1-2
inactive: dose: 100.0 mg/kg/injection, schedule: Q04DX002 (ip), vehicle: saline with Tween-80 104 % of control | dose: 200.0 mg/kg/injection, schedule: Q04DX002 (ip), vehicle: saline with Tween-80 99 % of control | dose: 400.0 mg/kg/injection, schedule: Q04DX002 (ip), vehicle: saline with Tween-80 107 % of control

NCC(SSC(CN)C(=O)O)C(=O)O (stereo not drawn)
inactive: [1] 100 % of control | [2] 101 % of control | [3] 103 % of control and 115 % of control

CN(C)CCCNC(=S)C(=S)NCCCN(C)C
inactive: [4] 97 % of control | [5] 105 % of control

COC(=O)N(c1ccccc1)c1ccccn1
inactive: [6] 106 % of control | [7] 97 % of control | dose: 240.0 mg/kg/injection, schedule: Q01DX005 (ip), vehicle: saline with Tween-80 100 % of control

NC(Cc1ccc(Cl)cc1)c1nn[nH]n1 (stereo not drawn)
inactive: dose: 25.0 mg/kg/injection, schedule: Q01DX009 (ip), vehicle: saline with Tween-80 99 % of control | [8] 99 % of control | [9] 101 % of control

COC1=C(OC)C(=O)C(SC/C=C(\C)CCCC(C)CCCC(C)CCCC(C)C)=CC1=O (stereo not drawn)
inactive: dose: 6.25 mg/kg/injection, schedule: Q01DX009 (ip), vehicle: saline with Tween-80 105 % of control and 106 % of control and 113 % of control

Cc1c(OCC(=O)N/N=C/c2ccc(N(CCCl)CCCl)cc2)ccc2c(=O)c3ccccc3oc12
inactive: [10] 96 % of control | [11] 98 % of control

OCC(O)Cn1cnc2c(NO)ncnc21 (stereo not drawn)
inactive: [10] 101 % of control | [11] 95 % of control | dose: 240.0 mg/kg/injection, schedule: Q01DX005 (ip), vehicle: Klucel (hydroxypropylcellulose) (HPC) 100 % of control

COc1ccc(/C(C)=N/N=c2/sc3ccccc3n2CC(=O)O)cc1
inactive: dose: 100.0 mg/kg/injection, schedule: Q01DX001 (ip), vehicle: saline with Tween-80 101 % of control | dose: 200.0 mg/kg/injection, schedule: Q01DX001 (ip), vehicle: saline with Tween-80 101 % of control | dose: 400.0 mg/kg/injection, schedule: Q01DX001 (ip), vehicle: saline with Tween-80 91 % of control

COc1ccc2c(c1OC)[C@]13CCCC[C@@H]1[C@H](C2)N(C)CC3
inactive: dose: 12.5 mg/kg/injection, schedule: Q04DX003 (ip), vehicle: saline 101 % of control | dose: 25.0 mg/kg/injection, schedule: Q04DX003 (ip), vehicle: saline 100 % of control | dose: 50.0 mg/kg/injection, schedule: Q04DX003 (ip), vehicle: saline 100 % of control

CCCCOCC(C)O (stereo not drawn)
inactive: dose: 100.0 mg/kg/injection, schedule: Q04DX003 (ip), vehicle: saline 109 % of control | dose: 200.0 mg/kg/injection, schedule: Q04DX003 (ip), vehicle: saline 100 % of control | dose: 400.0 mg/kg/injection, schedule: Q04DX003 (ip), vehicle: saline 90 % of control

CC1=NNB(O)c2sccc21
inactive: [8] 90 % of control | [9] 100 % of control | dose: 200.0 mg/kg/injection, schedule: Q01DX009 (ip), vehicle: saline with Tween-80 91 % of control

CC(=O)Nc1ccc(S(=O)(=O)N/N=C\c2cc([N+](=O)[O-])ccc2O)cc1
inactive: dose: 50.0 mg/kg/injection, schedule: Q01DX005 (ip), vehicle: saline with Tween-80 103 % of control | dose: 100.0 mg/kg/injection, schedule: Q01DX005 (ip), vehicle: saline with Tween-80 101 % of control | dose: 200.0 mg/kg/injection, schedule: Q01DX005 (ip), vehicle: saline with Tween-80 93 % of control

N#C[S][Hg][c]1ccccc1
inactive: [6] 106 % of control | [7] 98 % of control

CC1(CBr)C2CCC1C(=O)C2 (stereo not drawn)
inactive: dose: 6.25 mg/kg/injection, schedule: Q01DX005 (ip), vehicle: saline with Tween-80 100 % of control | dose: 12.5 mg/kg/injection, schedule: Q01DX005 (ip), vehicle: saline with Tween-80 96 % of control | dose: 25.0 mg/kg/injection, schedule: Q01DX005 (ip), vehicle: saline with Tween-80 96 % of control

O=S1(=O)CCC2C1C1(Cl)C(Cl)=C(Cl)C2(Cl)C1(Cl)Cl (stereo not drawn)
inactive: dose: 6.25 mg/kg/injection, schedule: Q01DX009 (ip), vehicle: saline 100 % of control | [1] 100 % of control | [2] 100 % of control

CC(/C=N\N=C(N)N)=N/N=C(N)N
inactive: dose: 14.6 mg/kg/injection, schedule: Q01DX009 (ip), vehicle: saline 100 % of control | dose: 22.0 mg/kg/injection, schedule: Q01DX009 (ip), vehicle: saline 120 % of control

CCOC(=O)c1c2c(n(-c3ccccc3)c1C)C(=O)c1ccccc1C2=O
inactive: [3] 99 % of control | [12] 92 % of control | [13] 98 % of control

COC(=O)C1C(O)CCC2CN3CCc4c([nH]c5cc(OC)ccc45)C3CC21 (stereo not drawn)
inactive: dose: 20.0 mg/kg/injection, schedule: Q01DX005 (ip), vehicle: DMSO 104 % of control | dose: 40.0 mg/kg/injection, schedule: Q01DX005 (ip), vehicle: DMSO 111 % of control | dose: 80.0 mg/kg/injection, schedule: Q01DX005 (ip), vehicle: DMSO 102 % of control | dose: 160.0 mg/kg/injection, schedule: Q01DX005 (ip), vehicle: DMSO 100 % of control

CC(SCCCCCCCCCCSC(C)C(=O)O)C(=O)O (stereo not drawn)
inactive: [4] 93 % of control | [5] 98 % of control | dose: 200.0 mg/kg/injection, schedule: Q01DX005 (ip), vehicle: Klucel (hydroxypropylcellulose) (HPC) 95 % of control

CN(CC#N)Cc1ccccc1
inactive: dose: 7.5 mg/kg/injection, schedule: Q01DX005 (ip), vehicle: saline with Tween-80 95 % of control | dose: 15.0 mg/kg/injection, schedule: Q01DX005 (ip), vehicle: saline with Tween-80 96 % of control | dose: 30.0 mg/kg/injection, schedule: Q01DX005 (ip), vehicle: saline with Tween-80 97 % of control | [6] 103 % of control

OC1C(O)C(O)C(O)C(O)C1O.[Cu+2].[Cu] (stereo not drawn)
inactive: dose: 3.12 mg/kg/injection, schedule: Q01DX005 (ip), vehicle: Klucel (hydroxypropylcellulose) (HPC) 93 % of control | [14] 93 % of control | [15] 94 % of control | [16] 100 % of control

CCC(=O)NC(Cc1ccsc1)C(=O)O (stereo not drawn)
inactive: [1] 103 % of control | [2] 107 % of control | [3] 98 % of control | [12] 90 % of control | [13] 90 % of control

FC(F)(F)C1=NNC(c2ccc3ccccc3c2)=NN1
inactive: dose: 50.0 mg/kg/injection, schedule: Q01DX009 (ip), vehicle: Klucel (hydroxypropylcellulose) (HPC) 95 % of control | dose: 100.0 mg/kg/injection, schedule: Q01DX009 (ip), vehicle: Klucel (hydroxypropylcellulose) (HPC) 90 % of control | dose: 200.0 mg/kg/injection, schedule: Q01DX009 (ip), vehicle: Klucel (hydroxypropylcellulose) (HPC) 92 % of control

C[CH2][Sn]([CH2]C)([O]C(=O)c1ccc2c(c1)OC(C)(C)O2)[O]C(=O)c1ccc2c(c1)OC(C)(C)O2
inactive: [14] 117 % of control | [15] 116 % of control | [16] 120 % of control | [4] 124 % of control
